The IC50 is the concentration at which inhibition is half-maximal.

JAK1, sequence (P23458 whole entry): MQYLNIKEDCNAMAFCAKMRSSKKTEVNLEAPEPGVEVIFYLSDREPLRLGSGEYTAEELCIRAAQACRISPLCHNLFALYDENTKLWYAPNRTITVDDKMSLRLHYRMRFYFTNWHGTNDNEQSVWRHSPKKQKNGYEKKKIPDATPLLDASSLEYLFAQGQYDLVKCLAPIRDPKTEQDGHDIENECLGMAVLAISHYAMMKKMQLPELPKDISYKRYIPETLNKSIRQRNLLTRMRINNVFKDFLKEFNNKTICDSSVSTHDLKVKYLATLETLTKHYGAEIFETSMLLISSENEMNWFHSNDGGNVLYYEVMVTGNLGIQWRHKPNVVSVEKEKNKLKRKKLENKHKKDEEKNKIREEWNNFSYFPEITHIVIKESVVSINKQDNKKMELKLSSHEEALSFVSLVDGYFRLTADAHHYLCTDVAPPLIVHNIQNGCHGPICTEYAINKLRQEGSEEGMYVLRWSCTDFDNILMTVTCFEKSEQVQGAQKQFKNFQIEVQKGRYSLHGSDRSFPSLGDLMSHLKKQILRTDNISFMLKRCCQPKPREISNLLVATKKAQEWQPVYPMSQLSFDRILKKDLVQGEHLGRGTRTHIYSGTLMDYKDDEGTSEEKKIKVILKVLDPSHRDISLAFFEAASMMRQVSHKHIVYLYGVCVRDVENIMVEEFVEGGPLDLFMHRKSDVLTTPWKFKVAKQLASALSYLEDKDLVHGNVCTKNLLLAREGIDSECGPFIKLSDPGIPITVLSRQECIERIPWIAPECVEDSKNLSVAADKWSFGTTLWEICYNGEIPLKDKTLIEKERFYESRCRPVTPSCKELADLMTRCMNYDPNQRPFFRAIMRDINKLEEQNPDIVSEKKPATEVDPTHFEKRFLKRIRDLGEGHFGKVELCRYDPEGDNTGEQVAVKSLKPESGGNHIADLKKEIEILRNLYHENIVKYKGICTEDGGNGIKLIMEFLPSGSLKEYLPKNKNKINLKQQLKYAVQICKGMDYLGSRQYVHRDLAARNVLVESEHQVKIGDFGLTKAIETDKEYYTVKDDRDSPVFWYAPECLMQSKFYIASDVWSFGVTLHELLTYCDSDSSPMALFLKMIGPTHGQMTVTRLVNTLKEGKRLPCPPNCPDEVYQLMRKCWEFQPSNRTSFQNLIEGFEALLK

The test has as its target JAK1 (Homo sapiens (Human), UniProt P23458). Description: Analysis of JAK1 activity inhibition ability (ADP-Glo Kinase Assay). It counts as biochemical. Particulars: JAK1 enzyme, ADP-Glo luminescence, ATP 250 uM, IRS-itide substrate, 30° C. 40 minutes; read-out: IC50. The procedure, abridged:
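ADP-Glo luminescence read-out of ADP production, with IC50 taken as the concentration halving JAK1 activity relative to control. Enzyme was incubated 40 min at 30 °C with compound, IRS-itide (40 ng/mL) and ATP (250 uM), concentrations as prepared in pH 7.5 Tris-HCl/MgCl2/BSA/DTT buffer.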
For the compound `Cc1nnnn1Cc1ccc(-c2cc(NC(=O)C3CC3)nc3[nH]cnc23)cc1` [Example 594, N-(7-(4-((5-methyl-1H-tetrazol-1-yl)methyl)phenyl)-3H-imidazo[4,5-b]pyridin-5-yl)cyclopropanecarboxamide], the IC50 is greater than 0.2 µM. In the case of `O=C(Nc1cc(C2=CCN(C(=O)c3ccc(F)cc3)CC2)c2cc[nH]c2n1)C1CC1` [Example 279, N-(4-(1-(4-fluorobenzoyl)-1,2,3,6-tetrahydropyridin-4-yl)-1H-pyrrolo[2,3-b]pyridin-6-yl)cyclopropanecarboxamide], the IC50 lay in the range of 0.02 to 0.2 µM. For `C[C@@H]1CN(C(=O)C2(C#N)CCOCC2)CC=C1c1cc(NC(=O)C2CC2)nc2[nH]ccc12` [Example 407, (S)—N-(4-(1-(4-cyanotetrahydro-2H-pyran-4-carbonyl)-3-methyl-1,2,3,6-tetrahydropyridin-4-yl)-1H-pyrrolo[2,3-b]pyridin-6-yl)cyclopropanecarboxamide], the IC50 lay within 0.02 to 0.2 µM. With `N#CCCCS(=O)(=O)Nc1ccc(-c2cc(NC(=O)C3CC3)nc3[nH]ccc23)cc1` [Example 52, N-(4-(4-((3-cyanopropyl)sulfonamido)phenyl)-1H-pyrrolo[2,3-b]pyridin-6-yl)cyclopropanecarboxamide], the IC50 was less than 0.02 µM.

On to `O=C(Nc1cc(C2=CCN(C(=O)C3CC3F)CC2)c2cc[nH]c2n1)C1CC1` (centres unmarked) [Example 274, N-(4-(1-(2-fluorocyclopropane-1-carbonyl)-1,2,3,6-tetrahydropyridin-4-yl)-1H-pyrrolo[2,3-b]pyridin-6-yl)cyclopropanecarboxamide], for which the IC50 is less than 0.02 µM. Take `CC(C)CS(=O)(=O)Nc1ccc(-c2cc(NC(=O)C3CC3)nc3[nH]ccc23)cc1F` [Example 75, N-(4-(3-fluoro-4-((2-methylpropyl)sulfonamido)phenyl)-1H-pyrrolo[2,3-b]pyridin-6-yl)cyclopropanecarboxamide]: the IC50 is less than 0.02 µM. For `N#CCC(=O)N1CCC(c2cc(NC(=O)C3CC3)nc3[nH]ccc23)CC1` [Example 652, N-(4-(1-(2-cyanoacetyl)piperidin-4-yl)-1H-pyrrolo[2,3-b]pyridin-6-yl)cyclopropanecarboxamide] the value was 0.02 to 0.2 µM; for `CCCS(=O)(=O)NC1CC=C(c2cc(NC(=O)C3CC3)nc3[nH]ccc23)CC1` (centres unmarked) [Example 152, N-(4-(4-(propylsulfonamido)cyclohex-1-en-1-yl)-1H-pyrrolo[2,3-b]pyridin-6-yl)cyclopropanecarboxamide], 0.02 to 0.2 µM. With `CC(=O)N1CCN(C(=O)Cc2ccc(-c3cc(NC(=O)C4CC4)nc4[nH]ccc34)cc2)CC1` [Example 543, N-(4-(4-(2-(4-acetylpiperazin-1-yl)-2-oxoethyl)phenyl)-1H-pyrrolo[2,3-b]pyridin-6-yl)cyclopropanecarboxamide] the figure was greater than 0.2 µM; with `C[C@@H]1CN(C(=O)c2ccncc2F)CC=C1c1cc(NC(=O)C2CC2)nc2[nH]ccc12` [Example 402, (S)—N-(4-(1-(3-fluoroisonicotinoyl)-3-methyl-1,2,3,6-tetrahydropyridin-4-yl)-1H-pyrrolo[2,3-b]pyridin-6-yl)cyclopropanecarboxamide], less than 0.02 µM.

Consider `N#CCCNC(=O)Cc1ccc(-c2cc(NC(=O)C3CC3)nc3[nH]ccc23)cc1` [Example 553, N-(4-(4-(2-((2-cyanoethyl)amino)-2-oxoethyl)phenyl)-1H-pyrrolo[2,3-b]pyridin-6-yl)cyclopropanecarboxamide], for which the IC50 fell in the range of 0.02 to 0.2 µM.

With `O=C(Nc1cc(C2=CCN(C(=O)c3ccoc3)CC2)c2cc[nH]c2n1)C1CC1` [Example 278, N-(4-(1-(furan-3-carbonyl)-1,2,3,6-tetrahydropyridin-4-yl)-1H-pyrrolo[2,3-b]pyridin-6-yl)cyclopropanecarboxamide], the IC50 was in the range of 0.02 to 0.2 µM. For `CCS(=O)(=O)N(C)[C@H]1CCN(c2cc(NC(=O)C3CC3)nc3[nH]ccc23)C1` [Example 672, (S)—N-(4-(3-(N-methylethylsulfonamido)pyrrolidin-1-yl)-1H-pyrrolo[2,3-b]pyridin-6-yl)cyclopropanecarboxamide] the value was greater than 0.2 µM; for `O=C(Nc1cc(-c2ccc(NS(=O)(=O)c3ccc(Cl)cc3)cc2)c2cc[nH]c2n1)C1CC1` [Example 14, N-(4-(4-((4-chlorophenyl)sulfonamido)phenyl)-1H-pyrrolo[2,3-b]pyridin-6-yl)cyclopropanecarboxamide], less than 0.02 µM; for `CCS(=O)(=O)NC1CCC(c2cc(NC(=O)C3CC3)nc3[nH]ccc23)CC1` (centres unmarked) [Example 645, N-(4-(4-(ethylsulfonamido)cyclohexyl)-1H-pyrrolo[2,3-b]pyridin-6-yl)cyclopropanecarboxamide], 0.02 to 0.2 µM. For `O=C(NCC(F)(F)F)NC1CC=C(c2cc(NC(=O)C3CC3)nc3[nH]ccc23)CC1` (centres unmarked) [Example 442, N-(4-(4-(3-(2,2,2-trifluoroethyl)ureido)cyclohex-1-en-1-yl)-1H-pyrrolo[2,3-b]pyridin-6-yl)cyclopropanecarboxamide], the IC50 was less than 0.02 µM. With `C[C@@H]1CN(C(=O)CCl)CC=C1c1cc(NC(=O)C2CC2)nc2[nH]ccc12` [Example 401, (S)—N-(4-(1-(2-chloroacetyl)-3-methyl-1,2,3,6-tetrahydropyridin-4-yl)-1H-pyrrolo[2,3-b]pyridin-6-yl)cyclopropanecarboxamide], the IC50 lay in the range of 0.02 to 0.2 µM.

In the case of `N#CC1(CS(=O)(=O)N2CCN(c3cc(NC(=O)C4CC4)nc4[nH]ccc34)CC2)CC1` [Example 662, N-(4-(4-(((1-cyanocyclopropyl)methyl)sulfonyl)piperazin-1-yl)-1H-pyrrolo[2,3-b]pyridin-6-yl)cyclopropanecarboxamide], the IC50 was greater than 0.2 µM. For the compound `CC(C)(C)OC(=O)N1CC=C(c2cc(NC(=O)C3CC3)nc3[nH]ccc23)CC1` [Example 454, tert-butyl 4-(6-(cyclopropanecarboxamido)-1H-pyrrolo[2,3-b]pyridin-4-yl)-3,6-dihydropyridine-1 (2H)-carboxylate], the IC50 lay within 0.02 to 0.2 µM. With `CCCCNC(=S)Nc1ccc(-c2nc(NC(=O)C3CC3)nc3[nH]ccc23)cc1` [Example 465, N-(4-(4-(3-butylthioureido)phenyl)-7H-pyrrolo[2,3-d]pyrimidin-2-yl)cyclopropanecarboxamide], the IC50 lay in the range of 0.02 to 0.2 µM. As for `N#CC1CN(S(=O)(=O)Nc2ccc(-c3cc(NC(=O)C4CC4)nc4[nH]ccc34)cc2)C1` [Example 221, N-(4-(4-((3-cyanoazetidine)-1-sulfonamido)phenyl)-1H-pyrrolo[2,3-b]pyridin-6-yl)cyclopropanecarboxamide], the IC50 lay within 0.02 to 0.2 µM. As for `CC(C)(C)OC(=O)N1C2CCC1CN(c1nc(NC(=O)C3CC3)nc3[nH]ccc13)C2` [Example 695, tert-butyl 3-(2-(cyclopropanecarboxamido)-7H-pyrrolo[2,3-d]pyrimidin-4-yl)-3,8-diazabicyclo[3.2.1]octane-8-carboxylate], the IC50 lay within 0.02 to 0.2 µM. In the case of `O=C(Nc1cc(C2=CCC(NS(=O)(=O)C3CC3)CC2)c2cc[nH]c2n1)C1CC1` (centres unmarked) [Example 154, N-(4-(4-(cyclopropanesulfonamido)cyclohex-1-en-1-yl)-1H-pyrrolo[2,3-b]pyridin-6-yl)cyclopropanecarboxamide], the IC50 is 0.02 to 0.2 µM.

These data come from US11524968B2, “Heterocyclic compound as a protein kinase inhibitor” (HK inno.N Corporation, priority 2017, dated 2022).
